Test results published in patent EP0908457B1, “3-(1,2-benzisothiazol- and isoxazol-5-Y1)-2,4(1H,3H)-pyrimidinedione or thione and 3-(1,2-benzisothiazol- and isoxazol-5-y1)-4(3H)-pyrimidinone or thione herbicidal agents” (BASF AKTIENGESELLSCHAFT, priority 1997, dated 1999).

Experiments:
[1] = tested on: Echinochloa oryzoides (Ard.) Fritsch.; experiment: Preemergence weed control under flooded paddy conditions, ECHORC (Watergrass (Calif.)); format: in vivo; conditions: flooded paddy; note: meaning of each grade not given here
[2] = tested on: Oryza sativa, (L.) Tebonnet; experiment: Rice tolerance to post-transplant applications under flooded paddy conditions (Example 187), ORYSAT (Rice, Tebonnet); conditions: rated three to four weeks after treatment
Cyperus iria = experiment: Preemergence weed control under flooded paddy conditions, CYPIR (Rice Flatsedge); format: in vivo; conditions: flooded paddy; note: meaning of each grade not given here
[3] = tested on: Cyperus serotinus, Rottb.; experiment: Preemergence weed control under flooded paddy conditions, CYPSE (Flatsedge); format: in vivo; note: meaning of each grade not given here
[4] = tested on: Monochoria vaginalis, Presl.; experiment: Preemergence weed control under flooded paddy conditions, MOOVA (Monochoria); format: in vivo; conditions: flooded paddy; note: meaning of each grade not given here
Sagittaria pygmaea, L. = experiment: Preemergence weed control under flooded paddy conditions, SAGPY (Arrowhead (Pygmaea)); format: in vivo; conditions: flooded paddy; note: meaning of each grade not given here
[5] = Rate 0.0320 kg/ha, preemergence, rated three to four weeks after treatment
[6] = Rate 0.0620 kg/ha, preemergence, rated three to four weeks after treatment
[7] = Rate 0.1250 kg/ha, preemergence, rated three to four weeks after treatment
[8] = Rate 0.2500 kg/ha, preemergence, rated three to four weeks after treatment
[9] = 0.0313 kg/ha, preemergence weeds, rated three to four weeks after treatment
[10] = 0.0625 kg/ha, preemergence weeds, rated three to four weeks after treatment
[11] = 0.1250 kg/ha, preemergence weeds, rated three to four weeks after treatment
[12] = 0.2500 kg/ha, preemergence weeds, rated three to four weeks after treatment
[13] = Rate 0.0320 kg/ha, preemergence, rated 3-4 weeks after treatment
[14] = Rate 0.0620 kg/ha, preemergence, rated 3-4 weeks after treatment
[15] = Rate 0.1250 kg/ha, preemergence, rated 3-4 weeks after treatment
[16] = Rate 0.2500 kg/ha, preemergence, rated 3-4 weeks after treatment

SMILES	herbicidal effect rating, ECHORC [1, 5]	herbicidal effect rating, ECHORC [1, 6]	herbicidal effect rating, ECHORC [1, 7]	herbicidal effect rating, ECHORC [1, 8]	herbicidal effect rating, CYPIR (Cyperus iria; [5])	herbicidal effect rating, CYPIR (Cyperus iria; [6])	herbicidal effect rating, CYPIR (Cyperus iria; [7])	herbicidal effect rating, CYPIR (Cyperus iria; [8])	herbicidal effect rating, CYPSE [3, 5]	herbicidal effect rating, CYPSE [3, 6]	herbicidal effect rating, CYPSE [3, 7]	herbicidal effect rating, CYPSE [3, 8]	herbicidal effect rating, MOOVA [4, 5]	herbicidal effect rating, MOOVA [4, 6]	herbicidal effect rating, MOOVA [4, 7]	herbicidal effect rating, MOOVA [4, 8]	herbicidal effect rating, SAGPY (Sagittaria pygmaea, L.; [5])	herbicidal effect rating, SAGPY (Sagittaria pygmaea, L.; [6])	herbicidal effect rating, SAGPY (Sagittaria pygmaea, L.; [7])	herbicidal effect rating, SAGPY (Sagittaria pygmaea, L.; [8])	also measured
Cc1ccc(OCC(=O)OC2CCCC2)c(-c2nsc3ccc(-n4c(=O)cc(C(F)(F)F)n(C)c4=O)cc23)c1 [Example 84, Cyclopentyl {{2-{5-[3,6-dihydro-3-methyl-2,6-dioxo-4-(trifluoromethyl)-1(2H)-pyrimidinyl]-1,2-benzisothiazol-3-yl}-p-tolyl}oxy}acetate]	–	–	–	–	–	–	–	–	–	–	–	–	–	–	–	–	–	–	–	–	herbicidal effect rating, ECHORC ([1]; 0.0313 kg/ha, preemergence, rated three to four weeks after treatment): 9.0; herbicidal effect rating, ECHORC ([1]; 0.0625 kg/ha, preemergence, rated three to four weeks after treatment): 9.0; herbicidal effect rating, ECHORC ([1]; 0.1250 kg/ha, preemergence, rated three to four weeks after treatment): 9.0; herbicidal effect rating, ECHORC ([1]; 0.2500 kg/ha, preemergence, rated three to four weeks after treatment): 9.0; herbicidal effect rating, ORYSAT (rice tolerance) ([2]; 0.0313 kg/ha): 3.0; herbicidal effect rating, ORYSAT (rice tolerance) ([2]; 0.0625 kg/ha): 3.0; herbicidal effect rating, ORYSAT (rice tolerance) ([2]; 0.1250 kg/ha): 4.0; herbicidal effect rating, ORYSAT (rice tolerance) ([2]; 0.2500 kg/ha): 7.0
Cn1c(C(F)(F)F)cc(=O)n(-c2ccc3snc(COC(=O)Nc4ccccc4)c3c2)c1=O [Example 375, 2,4(1H,3H)-Pyrimidinedione, 3-[3-(hydroxymethyl)-1,2-benzisothiazol-5-yl]-1-methyl-6-(trifluoromethyl)-, phenylcarbamate (ester)]	6.0	6.0	9.0	9.0	3.0	4.0	6.0	9.0	0.0	0.0	4.0	7.0	9.0	9.0	9.0	9.0	7.0	9.0	9.0	9.0	–
Cn1c(C(F)(F)F)cc(=O)n(-c2ccc3snc(COC(=O)Cc4ccccc4Cl)c3c2)c1=O [Example 402, 2,4(1H,3H)-Pyrimidinedione, 3-[3-(hydroxymethyl)-1,2-benzisothiazol-5-yl]-1-methyl-6-(trifluoromethyl)-, (o-chlorophenyl)acetate (ester)]	0.0	0.0	3.0	4.0	0.0	2.0	3.0	7.0	–	0.0	0.0	5.0	7.0	7.0	9.0	9.0	0.0	0.0	0.0	3.0	–
CCC(C)S(=O)(=O)NC(=O)c1nsc2ccc(-n3c(=O)cc(C(F)(F)F)n(C)c3=O)cc12 (stereo not shown) [Example 395, 1,2-Benzisothiazole-3-carboxamide, 5-[3,6-dihydro-3-methyl-2,6-dioxo-4-(trifluoromethyl)-1(2H)-pyrimidinyl]-N-[(1-methylpropyl)sulfonyl]-]	0.0	0.0	2.0	3.0	0.0	0.0	0.0	3.0	0.0	0.0	0.0	0.0	9.0	9.0	9.0	9.0	0.0	2.0	4.0	5.0	–
C=CCC(c1nsc2ccc(-n3c(=O)cc(C(F)(F)F)n(C)c3=O)cc12)S(C)(=O)=O (stereo not shown) [Example 602, 2,4(1H,3H)-Pyrimidinedione, 1-methyl-3-{3-[1-(methylsulfonyl)-3-butenyl]-1,2-benzisothiazol-5-yl}-6-(trifluoromethyl)-]	0.0	5.0	9.0	9.0	3.0	3.0	5.0	5.0	–	0.0	7.0	9.0	7.0	7.0	8.0	9.0	0.0	0.0	0.0	3.0	–
COC(=O)C=CCOc1ccc(C)cc1-c1nsc2ccc(-n3c(=O)cc(C(F)(F)F)n(C)c3=O)cc12 [Example 188, Methyl 4-{{2-{5-[3,6-dihydro-3-methyl-2,6-dioxo-4-(trifluoromethyl)-1(2H)-pyrimidinyl]-1,2-benzisothiazol-3-yl}-p-tolyl}oxy}-2-butenoate, (E)- and (Z)-]	–	–	–	–	–	–	–	–	–	–	–	–	–	–	–	–	–	–	–	–	herbicidal effect rating, ECHORC [1, 9]: 0.0; herbicidal effect rating, ECHORC [1, 10]: 0.0; herbicidal effect rating, ECHORC [1, 11]: 2.0; herbicidal effect rating, ECHORC [1, 12]: 8.0; herbicidal effect rating, CYPIR (Cyperus iria; [9]): 0.0; herbicidal effect rating, CYPIR (Cyperus iria; [10]): 0.0; herbicidal effect rating, CYPIR (Cyperus iria; [11]): 0.0; herbicidal effect rating, CYPIR (Cyperus iria; [12]): 0.0; herbicidal effect rating, CYPSE [3, 9]: 0.0; herbicidal effect rating, MOOVA [4, 9]: 9.0; herbicidal effect rating, MOOVA [4, 10]: 9.0; herbicidal effect rating, MOOVA [4, 11]: 9.0; herbicidal effect rating, MOOVA [4, 12]: 9.0; herbicidal effect rating, SAGPY (Sagittaria pygmaea, L.; [9]): 0.0; herbicidal effect rating, SAGPY (Sagittaria pygmaea, L.; [10]): 0.0; herbicidal effect rating, SAGPY (Sagittaria pygmaea, L.; [11]): 0.0; herbicidal effect rating, SAGPY (Sagittaria pygmaea, L.; [12]): 0.0
Cn1c(C(F)(F)F)cc(=O)n(-c2ccc3snc(C[S+]([O-])c4ccccc4)c3c2)c1=O (stereo not shown) [Example 394, 2,4(1H,3H)-Pyrimidinedione, 1-methyl-3-{3-[(phenylsulfinyl)methyl]-1,2-benzisothiazol-5-yl}-6-(trifluoromethyl)-]	0.0	0.0	4.0	6.0	0.0	3.0	5.0	7.0	0.0	0.0	0.0	2.0	8.0	8.0	9.0	9.0	–	0.0	0.0	0.0	–
CCOC(=O)C1CCC(OC(=O)COc2ccc(C)cc2-c2nsc3ccc(-n4c(=O)cc(C(F)(F)F)n(C)c4=O)cc23)CC1 (single isomer, unassigned; isomer a) [Example 524, Acetic acid, {{2-{5-[3,6-dihydro-3-methyl-2,6-dioxo-4-(trifluoromethyl)-1(2H)-pyrimidinyl]-1,2-benzisothiazol-3-yl}-p-tolyl}oxy}-, ester with ethyl 4-hydroxycyclohexanecarboxylate, isomer A]	–	–	–	–	–	–	–	–	–	–	–	–	–	–	–	–	–	–	–	–	herbicidal effect rating, ECHORC [1, 13]: 7.0; herbicidal effect rating, ECHORC [1, 14]: 9.0; herbicidal effect rating, ECHORC [1, 15]: 9.0; herbicidal effect rating, ECHORC [1, 16]: 9.0; herbicidal effect rating, CYPIR (Cyperus iria; [13]): 2.0; herbicidal effect rating, CYPIR (Cyperus iria; [14]): 2.0; herbicidal effect rating, CYPIR (Cyperus iria; [15]): 4.0; herbicidal effect rating, CYPIR (Cyperus iria; [16]): 7.0; herbicidal effect rating, CYPSE [3, 13]: 0.0; herbicidal effect rating, CYPSE [3, 14]: 0.0; herbicidal effect rating, CYPSE [3, 15]: 2.0; herbicidal effect rating, CYPSE [3, 16]: 6.0; herbicidal effect rating, MOOVA [4, 13]: 9.0; herbicidal effect rating, MOOVA [4, 14]: 9.0; herbicidal effect rating, MOOVA [4, 15]: 9.0; herbicidal effect rating, MOOVA [4, 16]: 9.0; herbicidal effect rating, SAGPY (Sagittaria pygmaea, L.; [13]): 0.0; herbicidal effect rating, SAGPY (Sagittaria pygmaea, L.; [14]): 0.0; herbicidal effect rating, SAGPY (Sagittaria pygmaea, L.; [15]): 0.0; herbicidal effect rating, SAGPY (Sagittaria pygmaea, L.; [16]): 0.0
